Results from patent publication US9340569B2, “Methods and compositions for inhibiting clostridium difficile spore germination and outgrowth” (priority 2008, dated 2016).
“Also recorded” adds a separate entry of the source. Counter-ions that a name gives are not always drawn. Like-named read-outs stand apart in the source and are kept apart here.

Legend:
C. difficile spores [1] = test: Inhibition of taurocholate-induced C. difficile spore germination, Ki from Lineweaver-Burk plot; format: cell-based, Clostridium difficile; details: for Inhibits Germination?: BHIS with 2-50 mM taurocholate plus inhibitor, OD600; for Ki: binding constant of inhibitor for the spore, competition with taurocholate
C. difficile spores [2] = format: cell-based, Clostridium difficile
C. difficile spores [3] = format: cell-based, Clostridium difficile; remark: listed apart in the source
vegetative C. difficile = format: cell-based, Clostridium difficile
C. perfringens SM101 = format: cell-based, Clostridium perfringens
C. difficile spores [4] = test system: C. difficile spores
[5] = rat, in vivo; cited from earlier work
[6] = in vivo; cited from earlier work

## COC(=O)CC[C@@H](C)[C@H]1CC[C@H]2[C@@H]3C[C@@H](O)[C@@H]4C[C@H](O)CC[C@]4(C)[C@H]3CC[C@]12C [5β-cholanic acid 3α,6β diol methyl ester]
C. difficile spores [1]
  Inhibits Germination?: Yes
  Ki: 48 µM

## COC(=O)CC[C@@H](C)[C@H]1CC[C@H]2[C@@H]3[C@H](O)C[C@@H]4C[C@H](O)CC[C@]4(C)[C@H]3CC[C@]12C [5β-cholanic acid 3α,7α diol methyl ester, 5β-cholanic acid-3α,7α-diol methyl ester]
C. difficile spores [1]
  Inhibits Germination?: Yes
  Ki: 22 µM

## CC(=O)O[C@@H]1CC[C@@]2(C)[C@H](CC[C@@H]3[C@@H]2CC[C@]2(C)[C@@H]([C@H](C)CCC(=O)O)CC[C@@H]32)C1 [5β-cholanic acid 3α-ol-acetate]
C. difficile spores [1]
  Inhibits Germination?: No

## COC(=O)CC[C@@H](C)[C@H]1CC[C@H]2[C@@H]3[C@H](O)C[C@@H]4C[C@H](OC(C)=O)CC[C@]4(C)[C@H]3CC[C@]12C [5β-cholanic acid-3α,7α-diol 3-acetate methyl ester]
C. difficile spores [1]
  Inhibits Germination?: Yes
  Ki: 40 µM

## COC(=O)CC[C@@H](C)[C@H]1CC[C@H]2[C@@H]3[C@H](OC(C)=O)C[C@@H]4C[C@H](OC(C)=O)CC[C@]4(C)[C@H]3CC[C@]12C [5β-cholanic acid-3α,7α-diol diacetate methyl ester]
C. difficile spores [1]
  affinity for C. difficile spores relative to chenodeoxycholate: 7-8 times
  potency as inhibitor of spore germination relative to chenodeoxycholate: approximately ten times more potent
  Inhibits Germination?: Yes
  Ki: 40 µM

## CC(CCC(=O)O)C1CCC2C3CC(=O)C4CC(O)CCC4(C)C3CCC12C (stereo not shown) [6-ketolithocholate]
C. difficile spores [1]
  Inhibits Germination?: Yes
  Ki: 200 µM

## C[C@H](CCC(=O)O)[C@H]1CC[C@H]2[C@@H]3[C@H](O)C[C@@H]4C[C@H](O)CC[C@]4(C)[C@H]3C[C@H](O)[C@]12C [CA, cholate]
C. difficile spores [2]
  colony formation by spores, in words: stimulated efficient colony formation
C. difficile spores [3]
  germination (decrease in optical density) in BHIS: did not result in any significant decrease in the optical density
Vegetative C. difficile
  growth of vegetative C. difficile: able to grow
C. perfringens SM101
  growth of vegetative C. perfringens: able to grow, however, to wild-type levels

## C[C@H](CCC(=O)O)[C@H]1CC[C@H]2[C@@H]3[C@H](O)C[C@@H]4C[C@H](O)CC[C@]4(C)[C@H]3CC[C@]12C [CDCA, chenodeoxycholate]
Vegetative C. difficile
  growth of vegetative C. difficile: unable to grow; also recorded: inhibited the growth
  inhibition of vegetative growth of C. difficile, general statement: capable of inhibiting the vegetative growth
C. perfringens SM101
  growth of vegetative C. perfringens: unable to grow; also recorded: inhibited the growth
C. difficile spores [4]
  colony formation after transient exposure, in words: did not induce colony formation
  inhibition of colony formation in response to cholate: inhibited colony formation
  inhibition of colony formation in response to taurocholate: inhibited colony formation

## C[C@H](CCC(=O)O)[C@H]1CC[C@H]2[C@@H]3CC[C@@H]4C[C@H](O)CC[C@]4(C)[C@H]3C[C@H](O)[C@]12C [DCA, deoxycholate]
C. difficile spores [3]
  germination (decrease in optical density) in BHIS: small drop in OD600 that after 60 min was not significantly more than the change in OD of spores in BHIS alone
Vegetative C. difficile
  growth of vegetative C. difficile: neither C. difficile nor C. perfringens grew
C. perfringens SM101
  growth of vegetative C. perfringens: neither C. difficile nor C. perfringens grew
C. difficile spores [4]
  colony formation after transient exposure, in words: indistinguishable from that of spores incubated with taurocholate

## C[C@H](CCC(=O)NCC(=O)O)[C@H]1CC[C@H]2[C@@H]3[C@H](O)C[C@@H]4C[C@H](O)CC[C@]4(C)[C@H]3C[C@H](O)[C@]12C [GA, glycocholate]
C. difficile spores [2]
  colony formation by spores, in words: stimulated efficient colony formation
C. difficile spores [3]
  germination (decrease in optical density) in BHIS: did not result in any significant decrease in the optical density
Vegetative C. difficile
  growth of vegetative C. difficile: able to grow
C. perfringens SM101; BHIS containing 0.1% bile salt
  growth of vegetative C. perfringens: able to grow, however, to wild-type levels

## CCN(CCS(=O)(=O)O)C(=O)CC[C@@H](C)[C@H]1CC[C@H]2[C@@H]3[C@@H](O)C[C@@H]4C[C@H](O)CC[C@]4(C)[C@H]3CC[C@]12C [N-ethyl-tauroursodeoxycholate]
[5]
  deconjugation: 3.4+/−2.1%

## C[C@H](CCC(=O)NCCS(=O)(=O)O)[C@H]1CC[C@H]2[C@@H]3[C@H](O)C[C@@H]4C[C@H](O)CC[C@]4(C)[C@H]3CC[C@]12C [Taurochenodeoxycholate, 5β-cholanic acid-3α,7α-diol n-(2-sulphoethyl)-amide sodium salt]
C. difficile spores [1]; listed as taurochenodeoxycholate, sodium salt
  Inhibits Germination?: neither 5β-cholanic acid 3α-ol-acetate nor taurochenodeoxycholate was observed to inhibit
C. difficile spores [1]; sodium salt
  Inhibits Germination?: No

## C[C@H](CCC(=O)O)[C@H]1CC[C@H]2[C@@H]3[C@@H](O)C[C@@H]4C[C@H](O)CC[C@]4(C)[C@H]3CC[C@]12C [UA, ursodeoxycholate]
Vegetative C. difficile
  inhibition of vegetative growth of C. difficile, general statement: capable of inhibiting the vegetative growth

## C[C@H](CCC(=O)N(C)CC(=O)O)[C@H]1CC[C@H]2[C@@H]3[C@H](O)C[C@@H]4C[C@H](O)CC[C@]4(C)[C@H]3C[C@H](O)[C@]12C [cholylsarcosine]
[6]
  resistance to deconjugation: resistant to deconjugation

## NCC(=O)O [glycine]
C. difficile spores [3]
  cogermination in buffer (OD600): germinated in the presence of taurocholate but not in its absence
  germination (optical density), glycine plus taurocholate: the efficiency of germination was enhanced
  germination (optical density), single agent: a small decrease in the optical density

## C[C@H](CCC(=O)NCCS(=O)(=O)O)[C@H]1CC[C@H]2[C@@H]3[C@@H](O)C[C@@H]4C[C@H](O)CC[C@]4(C)[C@H]3CC[C@]12C [tauroursodeoxycholate]
[5]
  deconjugation: 100%
